Measurements taken from patent US10282841B1, “Bioinformatic analysis of vascular patterning” (The United States of America as Represented by the …, priority 2011, dated 2019).
Read-outs that look alike come from different tables or passages of the source.

How the values were obtained:
[1] = system: avian chorioallantoic membrane; assay type: in vivo
Description: To develop the VESGEN system mapping capabilities, proangiogenesis and antiangiogenesis factors were first studied in the avian chorioallantoic membrane, a well-established, experimentally convenient 2D, optically accessible model of microvascular remodeling, angiogenesis and angiogenesis therapeutics.

[2] = system: blood vessels; experiment: VESGEN analysis of regulators of blood vessel growth by vessel branching generation; assay type: in vivo; details: for vessel number, density or diameter for larger pre-existing vessels: larger pre-existing vessels of G1-G4
Description: The stimulator bFGF and inhibitor TGF-beta1 may be regarded as robust but simple regulators of blood vessel growth, because of their selective regulation of the growth of new small vessels. Other important regulators like vascular endothelial growth factor-165 (VEGF-165), also known as vascular permeability factor (VPF), are more complex in their regulatory activities. […] All healthy and unhealthy (abnormal) fluid shifts in the body are tightly regulated by the small vessels (vascular and lymphatic capillaries) except during trauma such as flesh wounds. The VESGEN system may support analysis of such retinal and brain vascular changes mediating the fluid shifts from images of experimental animals and clinical diagnostic images of humans.

[3] = chorioallantoic membrane, with higher concentrations

With angiostatin the “vascular morphology on inhibition of angiogenesis” value ([1]; avian chorioallantoic membrane) was “rendered the vascular tree highly abnormal and irregular”.

In the case of basic fibroblast growth factor [bFGF], the “growth of small vessels” value ([1]; avian chorioallantoic membrane) is reported as “stimulated specifically the robust growth of many small vessels”, the “vessel number, density or diameter for larger pre-existing vessels” value [2] is reported as “did not affect” and the “growth of new small vessels of vessel generation G5 and greater” value (“growth … of vessel generation G5 and greater” below) [2] is reported as “stimulation of the growth of new small vessels of vessel generation G5 and greater”.

With “transforming growth factor beta-1 [transforming growth factor (TGF) β-1]” the “vascular morphology on inhibition of angiogenesis” value ([1]; avian chorioallantoic membrane) was “retained a normal vascular morphology”, the “vessel number, density or diameter for larger pre-existing vessels” value [2] was “did not affect” and the “growth … of vessel generation G5 and greater” value [2] was “inhibition of the growth of new small vessels of vessel generation G5 and greater”.

In the case of “vascular endothelial growth factor-165 [VEGF]”, the “diameter of larger vessels” value ([1]; avian chorioallantoic membrane, at high concentrations) is reported as “significantly dilated”, the “growth of new small vessels” value ([1]; avian chorioallantoic membrane, at low concentrations) is reported as “stimulated the growth of new small vessels” and the vessel density ([1]; chorioallantoic membrane, at low concentrations) is reported as “increased”. For the same substance, the “diameters of larger arteries” value [1, 3] was “increasing diameters of larger arteries”, the vessel density [1, 3] was “progressively decreasing vessel density” and the “vessel leakage, vessel swelling and vessel tortuosity” value ([2]; blood vessel morphology) was “induction of vessel leakage, vessel swelling and vessel tortuosity”. The “growth and swelling of the associated lymphatic vascular system” value ([2]; lymphatic vascular system) was “stimulates the growth and swelling of the associated lymphatic vascular system” and the “growth … of vessel generation G5 and greater” value [2] was “stimulation of the growth of new, small blood vessels”.
